These results are taken from ChEMBL document CHEMBL2203097, “7-Phenyl-pyrido[2,3-d]pyrimidine-2,4-diamines: novel and highly selective protein tyrosine phosphatase 1B inhibitors” (Bioorg Med Chem Lett, 2012).

The target in data set [1] is T1, Tyrosine-protein phosphatase non-receptor type 1 (Homo sapiens, UniProt P18031).
T1 sequence (P18031 whole entry): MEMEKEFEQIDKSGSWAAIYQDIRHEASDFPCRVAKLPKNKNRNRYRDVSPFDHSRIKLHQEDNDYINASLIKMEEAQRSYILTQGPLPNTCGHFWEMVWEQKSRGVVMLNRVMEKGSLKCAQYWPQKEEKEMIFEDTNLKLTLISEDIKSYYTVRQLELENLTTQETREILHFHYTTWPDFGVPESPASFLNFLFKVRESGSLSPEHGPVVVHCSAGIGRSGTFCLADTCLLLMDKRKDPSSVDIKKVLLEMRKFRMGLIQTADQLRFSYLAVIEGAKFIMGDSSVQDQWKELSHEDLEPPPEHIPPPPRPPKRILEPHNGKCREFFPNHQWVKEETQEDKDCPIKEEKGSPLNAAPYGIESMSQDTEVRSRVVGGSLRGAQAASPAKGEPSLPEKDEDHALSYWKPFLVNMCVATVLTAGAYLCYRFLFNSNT
As to the kind of experiment: Inhibition of human PTP1B (1 to 321 amino acid residues) expressed in Escherichia coli using TRDI(pY)E as substrate incubated for 15 mins prior to substrate addition measured after 20 mins by malachite green staining-based colorimetric assay.

For data set [2], the species on record is Homo sapiens. Put plainly: Selectivity ratio of IC50 for PTPgamma to IC50 for human PTP1B (1 to 321 amino acid residues).
A short description of data set [3]: Volume of distribution in C57 mouse at 5 mg/kg, iv. Format: ADME, organism-based. Also on record: dose 5 mg/kg, route intravenous. The settings on record: in vivo.
The nature of data set [4]: AUC in C57 mouse at 50 mg/kg, po. Type of data set: ADME, organism-based. Also noted: dose 50 mg/kg, route oral. The note with it: plasma.
The species entered for data set [5] is Homo sapiens. Put plainly: Selectivity ratio of IC50 for PTPepsilon to IC50 for human PTP1B (1 to 321 amino acid residues).
A short description of data set [6]: Cmax in C57 mouse at 50 mg/kg, po. Format: ADME, organism-based. Also noted: dose 50 mg/kg, route oral. The note with it: in vivo.
The species entered for data set [7] is Homo sapiens. Put plainly: Selectivity ratio of IC50 for HCP to IC50 for human PTP1B (1 to 321 amino acid residues).
Data set [8] in a line: AUC in C57 mouse at 5 mg/kg, iv. Format: ADME, organism-based. Also on record: dose 5 mg/kg, route intravenous. The note with it: plasma.
The species entered for data set [9] is Homo sapiens. As to the kind of experiment: Selectivity ratio of IC50 for YOP to IC50 for human PTP1B (1 to 321 amino acid residues).
The species entered for data set [10] is Homo sapiens. Put plainly: Selectivity ratio of IC50 for TCPTP to IC50 for human PTP1B (1 to 321 amino acid residues).
Data set [11] in a line: Clearance in C57 mouse at 5 mg/kg, iv. Also noted: dose 5 mg/kg, route intravenous. The settings on record: in vivo. Format: ADME, organism-based.
For data set [12], the species on record is Homo sapiens. Put plainly: Selectivity ratio of IC50 for SHP2 to IC50 for human PTP1B (1 to 321 amino acid residues).
For data set [13], the species on record is Homo sapiens. As to the kind of experiment: Selectivity ratio of IC50 for PTPalpha to IC50 for human PTP1B (1 to 321 amino acid residues).
For data set [14], the species on record is Homo sapiens. As to the kind of experiment: Selectivity ratio of IC50 for CD45 to IC50 for human PTP1B (1 to 321 amino acid residues).
The nature of data set [15]: Oral bioavailability in C57 mouse at 50 mg/kg. The settings on record: in vivo. Format: ADME, organism-based.
Data set [16] is filed under the species Homo sapiens. Put plainly: Selectivity ratio of IC50 for LAR to IC50 for human PTP1B (1 to 321 amino acid residues).
Data set [17] deals with T2, Tyrosine-protein phosphatase non-receptor type 1 (Homo sapiens) (UniProt P18031).
T2 sequence (whole entry): T1 sequence (P18031 whole entry)
The note with it: 0.29 to 3.3 uM.
Description: Uncompetitive inhibition of human PTP1B (1 to 321 amino acid residues) expressed in Escherichia coli using DiFMUP as substrate at 0.29 to 3.3 uM by Lineweaver-Burke plot analysis

Data set [18] in a line: Half life in C57 mouse at 50 mg/kg, po. Also on record: dose 50 mg/kg, route oral. The settings on record: in vivo. Type of data set: ADME, organism-based.
For data set [19], the species on record is Homo sapiens. As to the kind of experiment: Selectivity ratio of IC50 for PTPbeta to IC50 for human PTP1B (1 to 321 amino acid residues).
The nature of data set [20]: Volume of distribution in C57 mouse at 10 mg/kg, iv. Format: ADME, organism-based. Also on record: dose 10 mg/kg, route intravenous. The note with it: in vivo.
Data set [21] can be described thus: Clearance in C57 mouse at 10 mg/kg, iv. Type of data set: ADME, organism-based. Also on record: dose 10 mg/kg, route intravenous. The settings on record: in vivo.
Data set [22] can be described thus: AUC in C57 mouse at 10 mg/kg, iv. Format: ADME, organism-based. Also on record: dose 10 mg/kg, route intravenous. The note with it: plasma.

Activity calls are given as the source filed them. No cut-off for these calls is given here.

The molecule `CNc1nc(N)nc2nc(-c3ccccc3OC)ccc12` came in with an IC50 in data set [1] of 2790 nM.

Consider `CCNc1nc(N)nc2nc(-c3ccccc3C(F)(F)F)ccc12`, for which inhibition in data set [1] was half-maximal at 1340 nM (IC50).

`CNc1nc(N)nc2nc(-c3ccccc3Cl)ccc12`: in [1], the 50% inhibitory concentration (IC50) is 1160 nM.

The molecule `CNc1nc(N)nc2nc(-c3ccc(Cl)cc3Cl)ccc12` registered an IC50 in data set [1] of 610 nM.

Consider `CNc1nc(N)nc2nc(-c3c(N4CCOCC4)cccc3C(F)(F)F)ccc12`, for which the IC50 in [1] is 1150 nM.

In [1], `CNc1nc(N)nc2nc(-c3c(N4CCCC4)cccc3C(F)(F)F)ccc12` showed an IC50 of 430 nM.

For the molecule `CNc1nc(N)nc2nc(-c3ccccc3[N+](=O)[O-])ccc12`, the IC50 in [1] was 1370 nM.

`Nc1nc(NCCO)c2ccc(-c3ccccc3C(F)(F)F)nc2n1` had a concentration for half-maximal inhibition (IC50) in data set [1] of 1850 nM.

Consider `CNc1nc(N)nc2nc(-c3c(F)cccc3C(F)(F)F)ccc12`, for which, in data set [1], inhibition was half-maximal at 260 nM (IC50).

Consider `CNc1nc(N)nc2nc(-c3c(F)cccc3N3CCCC3)ccc12`, for which, in [1], the IC50 was determined as 620 nM.

Molecule `CNc1nc(N)nc2nc(-c3c(SC)cccc3C(F)(F)F)ccc12` came in with an IC50 in data set [1] of 350 nM.

Take `CNc1nc(N)nc2nc(-c3ccccc3C(=O)O)ccc12`: the IC50 in data set [1] is 2390 nM.

For `CNc1nc(N)nc2nc(-c3ccccc3C(F)(F)F)ccc12`, the Ratio IC50 in the data set listed under Homo sapiens [2] was over 100; in the data set filed under Homo sapiens [5] it was over 100; in the data set listed under Homo sapiens [7], over 100; in the data set listed under Homo sapiens [9] it was over 100; in the data set listed under Homo sapiens [10], 2; in the data set listed under Homo sapiens [12] it was over 100. In addition, the Ratio IC50 in the data set listed under Homo sapiens [13], in the data set filed under Homo sapiens [14], in the data set listed under Homo sapiens [16] and in the data set filed under Homo sapiens [19] was over 100 each time. For the same molecule, the Vd in data set [3] worked out at 1.8 L/kg. The values for the AUC in data set [4] and in data set [8] were 8990 ng·h/mL and 1370 ng·h/mL, respectively. In data set [6], the Cmax came out at 3530 ng/mL. Moreover, in data set [1], half-maximal inhibition (IC50) was put at 480 nM. This molecule also had a clearance in [11] of 61 mL/min/kg. Also, the bioavailability in [15] came to 66%. In [17], the inhibition result was “Active”. Besides, the half-life in [18] was 7.2 h.

`CNc1nc(N)nc2nc(-c3ccccc3Br)ccc12`: the IC50 in data set [1] turned out to be 530 nM.

With `CNc1nc(N)nc2nc(-c3cc(Cl)ccc3Cl)ccc12`, the midpoint of inhibition in [1], the IC50, lay at 960 nM.

With `CCCc1cc2c(NC)nc(N)nc2nc1-c1ccccc1C(F)(F)F`, the half-maximal inhibitory concentration (IC50) in data set [1] turned out to be 270 nM.

On to `CNc1nc(N)nc2nc(-c3cccc(Cl)c3Cl)ccc12`, for which the IC50 in [1] was found to be 1180 nM.

Regarding `CNc1nc(N)nc2nc(-c3c(Oc4ccccc4)cccc3C(F)(F)F)ccc12`, the Ratio IC50 in the data set filed under Homo sapiens [2] was over 100; in the data set filed under Homo sapiens [5] it was over 100; in the data set listed under Homo sapiens [7] it was over 100; in the data set listed under Homo sapiens [9], over 100; in the data set filed under Homo sapiens [10], 2; in the data set filed under Homo sapiens [12], over 100. Further, the Ratio IC50 in the data set filed under Homo sapiens [13], in the data set listed under Homo sapiens [14], in the data set listed under Homo sapiens [16] and in the data set listed under Homo sapiens [19] was over 100 in each case. The AUC stood at 11000 ng·h/mL in data set [4] and 6970 ng·h/mL in [22]. Moreover, the Vd in [20] turned out to be 0.9 L/kg. This molecule returned a clearance in [21] of 24 mL/min/kg. Besides, the Cmax in data set [6] amounted to 2200 ng/mL. Also, the IC50 in [1] was 200 nM. In data set [15], this molecule registered a bioavailability of 32%. The same molecule had a half-life in data set [18] of 1.3 h.

Consider `CNc1nc(N)nc2nc(-c3c(N4CCCCC4)cccc3C(F)(F)F)ccc12`, for which, in data set [1], the IC50 was 1350 nM.

The molecule `CNc1nc(N)nc2nc(-c3c(Cl)cccc3N3CCCC3)ccc12` returned an IC50 in [1] of 820 nM.

For `CNc1nc(N)nc2nc(-c3c(OC)cccc3C(F)(F)F)ccc12`, inhibition in [1] was half-maximal at 560 nM (IC50).

On to `CNc1nc(N)nc2nc(-c3ccccc3C(F)(F)F)c(S(C)(=O)=O)cc12`, for which the concentration for half-maximal inhibition (IC50) in [1] came out at 1000 nM.

Consider `CCCNc1nc(N)nc2nc(-c3ccccc3C(F)(F)F)ccc12`, for which, in [1], half-maximal inhibition (IC50) required 2430 nM.

`CNc1nc(N)nc2nc(-c3ccccc3C(F)(F)F)c(C)cc12`: the IC50 in [1] came out at 500 nM.
